The text below walks through data of US20060276464A1, “Diarylsulfone sulfonamides and use thereof” (Wyeth, priority 2005, published 2006).

Like-named read-outs stand apart in the source and are kept apart here.

This series has as its target T1, SFRP-1 (Homo sapiens, UniProt Q8N474).
T1 sequence (Q8N474 32-314): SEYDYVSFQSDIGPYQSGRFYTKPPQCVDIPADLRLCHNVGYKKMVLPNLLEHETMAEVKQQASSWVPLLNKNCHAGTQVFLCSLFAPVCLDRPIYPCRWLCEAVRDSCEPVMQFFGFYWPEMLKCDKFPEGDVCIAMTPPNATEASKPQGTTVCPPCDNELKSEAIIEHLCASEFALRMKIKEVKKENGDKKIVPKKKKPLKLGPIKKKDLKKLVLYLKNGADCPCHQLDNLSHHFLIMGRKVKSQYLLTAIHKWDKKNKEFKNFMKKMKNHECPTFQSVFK
The series can be described thus: Cell-based assay for in vitro measurement of SFRP-1/SARP2 antagonist activity (U2OS cells co-transfected with 16x TCF-tk-Luciferase reporter, Wnt and hSFRP-1).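 As to all read-outs here: U2OS cells co-transfected with a TCF-tk luciferase reporter, a Wnt vector, hSFRP-1 or empty vector and CMV-βgal, luciferase luminescence read in cell lysates alongside βgal activity.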 Particulars: for fold induction at 15 µM: U2OS. On the technique in general: Reporter assays use an easily measured gene product as a stand-in for the process of interest.

Where [1] appears, read: read-out: Fold Induction with SFRP-1, Conc 15 μM, with SFRP-1, fold induction over SFRP-1 control, single dose.
Setting [2] is: read-out: Fold Induction without SFRP-1, Conc 15 μM, without SFRP-1, single dose.

With `Cc1ccc(S(=O)(=O)c2ccc(Cl)cc2)cc1S(=O)(=O)NC[C@@H](C)c1ccccc1` [Example 265, 5-[(4-chlorophenyl)sulfonyl]-2-methyl-N-[(2S)-2-phenylpropyl]benzenesulfonamide], for the setting “Conc 15 μM, with SFRP-1, fold induction over SFRP-1 control, single dose”, the “Fold Induction with SFRP-1” value is reported as 1.2 fold. The “Fold Induction without SFRP-1” value (Conc 15 μM, without SFRP-1, single dose) is 1 fold. Moreover, the fold induction at 15 µM runs as follows: under setting [1], 1.1; under setting [2], 1.1.

Regarding `CCc1ccc(S(=O)(=O)c2ccccc2)cc1S(=O)(=O)NC1Cc2ccccc2C1` [Example 266, N-2,3-dihydro-1H-inden-2-yl-2-ethyl-5-(phenylsulfonyl)benzenesulfonamide], the fold induction at 15 µM reads like this: under setting [1], 2.7; under setting [2], 1.2.

In the case of `CCc1ccc(S(=O)(=O)c2ccccc2)cc1S(=O)(=O)N[C@H]1C[C@@H]1c1ccccc1` [Example 267, 2-ethyl-N-[(1S,2R)-2-phenylcyclopropyl]-5-(phenylsulfonyl)benzenesulfonamide], the fold induction at 15 µM was 2 under setting [1] and 1.2 under setting [2].

Consider `CCc1ccc(S(=O)(=O)c2ccccc2)cc1S(=O)(=O)NC[C@H](C)c1ccccc1` [Example 268, 2-ethyl-N-[(2R)-2-phenylpropyl]-5-(phenylsulfonyl)benzenesulfonamide], for which the fold induction at 15 µM under setting [1] was 3.6 and the fold induction at 15 µM under setting [2] was 1.1.

With `COc1ccc(S(=O)(=O)c2ccccc2)cc1S(=O)(=O)NC1Cc2ccccc2C1` [Example 269, N-2,3-dihydro-1H-inden-2-yl-2-methoxy-5-(phenylsulfonyl)benzenesulfonamide], the fold induction at 15 µM under setting [1] was found to be 1.4 and the fold induction at 15 µM under setting [2] amounted to 1.2.

On to `COc1ccc(S(=O)(=O)c2ccccc2)cc1S(=O)(=O)N[C@H]1C[C@@H]1c1ccccc1` [Example 270, 2-methoxy-N-[(1S,2R)-2-phenylcyclopropyl]-5-(phenylsulfonyl)benzenesulfonamide], for which the fold induction at 15 µM reads like this: under setting [1], 1.5; under setting [2], 1.2.

In the case of `COc1ccc(S(=O)(=O)c2ccccc2)cc1S(=O)(=O)NC[C@H](C)c1ccccc1` [Example 271, 2-methoxy-N-[(2R)-2-phenylpropyl]-5-(phenylsulfonyl)benzenesulfonamide], the fold induction at 15 µM is, setting by setting: under setting [1], 1.7; under setting [2], 1.2.

Regarding `COc1ccc(CCN(C)S(=O)(=O)c2cc(S(=O)(=O)c3ccccc3)ccc2C)cc1OC` [Example 272, N-[2-(3,4-dimethoxyphenyl)ethyl]-N,2-dimethyl-5-(phenylsulfonyl)benzenesulfonamide], the fold induction at 15 µM under setting [1] was found to be 0.9 and the fold induction at 15 µM under setting [2] stood at 1.

For `C=CCN(CCc1ccc(OC)c(OC)c1)S(=O)(=O)c1cc(S(=O)(=O)c2ccccc2)ccc1C` [Example 273, N-allyl-N-[2-(3,4-dimethoxyphenyl)ethyl]-2-methyl-5-(phenylsulfonyl)benzenesulfonamide], the fold induction at 15 µM by setting is: under setting [1], 0.9; under setting [2], 1.

For `C#CCN(CCc1ccc(OC)c(OC)c1)S(=O)(=O)c1cc(S(=O)(=O)c2ccccc2)ccc1C` [Example 274, N-[2-(3,4-dimethoxyphenyl)ethyl]-2-methyl-5-(phenylsulfonyl)-N-prop-2-ynylbenzenesulfonamide], the fold induction at 15 µM was determined as 2 under setting [1] and 1 under setting [2].

With `Cc1ccc(S(=O)(=O)c2ccc(C)c(S(=O)(=O)N(C)CCc3ccccc3F)c2)cc1` [Example 275, N-[2-(2-fluorophenyl)ethyl]-N,2-dimethyl-5-[(4-methylphenyl)sulfonyl]benzenesulfonamide], the fold induction at 15 µM is, setting by setting: under setting [1], 0.8; under setting [2], 0.8.

With `C=CCN(CCc1ccccc1F)S(=O)(=O)c1cc(S(=O)(=O)c2ccc(C)cc2)ccc1C` [Example 276, N-allyl-N-[2-(2-fluorophenyl)ethyl]-2-methyl-5-[(4-methylphenyl)sulfonyl]benzene sulfonamide], the fold induction at 15 µM under setting [1] was 0.8 and the fold induction at 15 µM under setting [2] is 1.
